Data reported in ChEMBL document CHEMBL3227979, “11-Oxo-11H-pyrido[2,1-b]quinazoline-8-carboxylic acid, an orally active antiallergy agent” (1979).
Active and inactive are the calls of the source. The calls are words filed in the database; no cut-off is given here.

What was measured:
[1] = system: Rattus norvegicus; assay: Antiallergic activity in rat assessed as inhibition of ovalbumin-induced passive cutaneous anaphylaxis at 0.5 mg/kg, iv dosed along with ovalbumin challenge relative to control; type: functional
[2] = system: Rattus norvegicus; assay: Antiallergic activity in iv dosed rat assessed as inhibition of ovalbumin-induced passive cutaneous anaphylaxis dosed along with ovalbumin challenge; type: functional; settings: read-out: ID50 (the source's name)
[3] = system: Rattus norvegicus; assay: Antiallergic activity in po dosed rat assessed as inhibition of ovalbumin-induced passive cutaneous anaphylaxis pretreated for 10 to 15 mins followed by ovalbumin challenge; type: functional; settings: for ED50: read-out: ID50 (the source's name)
[4] = organism: Cavia porcellus; assay: Antagonist activity at histamine receptor in guinea pig ileum assessed as reduction in histamine-induced contractions up to 0.1 mM; type: tissue-based
[5] = system: Rattus norvegicus; assay: Antiallergic activity in iv dosed rat assessed as inhibition of antigen-induced passive cutaneous anaphylaxis; type: functional
[6] = system: Rattus norvegicus; assay: Antiallergic activity in po dosed rat assessed as inhibition of antigen-induced passive cutaneous anaphylaxis; type: functional
[7] = system: Rattus norvegicus; assay: Antiallergic activity in rat assessed as inhibition of ovalbumin-induced passive cutaneous anaphylaxis at 5 mg/kg, iv dosed along with ovalbumin challenge relative to control; type: functional

`O=C(O)c1ccc2nc3c(c(=O)n2c1)CCCC3` was tested, and the inhibition [1] was “inactive”.

`Cl.O=C(O)c1ccc2nc3ccccc3c(=O)n2c1` showed an inhibition in vivo at 0.5 mg/kg [1] of 45%, an ED50 [2] of 0.5 mg/kg and an ED50 [3] of 2.5 mg/kg. For the same molecule, the inhibition [4] was “inactive”.

For `O=C(O)c1cccn2c(=O)c3ccccc3nc12`, the inhibition [1] was “inactive”.

`O=C(O)c1ccc2nc3cc4ccccc4cc3c(=O)n2c1` was tested, and the inhibition in vivo at 0.5 mg/kg [1] was 100%, the ED50 [2] was 0.1 mg/kg and the ED50 [5] was 0.015 mg/kg. For the same molecule, the ID50 [3] was “inactive”, the ED50 [6] was under 0.1 mg/kg and the inhibition [4] was “inactive”.

Molecule `O=C(O)c1ccn2c(=O)c3ccccc3nc2c1` has an inhibition in vivo at 0.5 mg/kg [1] of 21%.

With `O=C1c2ccccc2S(=O)(=O)c2cc(-c3nn[nH]n3)ccc21` [DOXANTRAZOLE] the ED50 [2] was 1.5 mg/kg and the ED50 [3] was 5 mg/kg.

Molecule `O=C(O)c1ccc2nc(O)cc(=O)n2c1` has an inhibition in vivo at 5 mg/kg [7] of 26%.

With `Cc1cc(=O)n2cc(C(=O)O)ccc2n1` the inhibition [1] was “inactive”.

For `O=C(O)c1cccn2c(=O)c3cc4ccccc4cc3nc12`, the inhibition [1] was “inactive”.

`O=C([O-])c1cc(=O)c2c(OCC(O)COc3cccc4oc(C(=O)[O-])cc(=O)c34)cccc2o1.[Na+].[Na+]` [CROMOLYN SODIUM] was tested, and the ED50 [2] was 1 mg/kg and the ID50 [3] was “inactive”.
